From US12023335B2, “Method for treating pancreatic cancer” (PTC THERAPEUTICS, INC., priority 2018, dated 2024)

Experiments:
PDA tumors in KPC mice = assay: KPC intervention/survival study; type: in vivo; conditions: KPC mice (FIGS. 7a, 7b)
Procedure: Tumor formation in KPC mice was monitored by weekly palpation until the detection of a mass. Upon positive palpation, the mass was monitored by twice weekly ultrasound until the tumor reached an enrollable size of 4-7 mm average diameter. Once enrollable, KPC mice were randomly enrolled into a treatment arm of the intervention study. Mice were treated with vehicle, Compound 1 (17 mg/kg, PO, b.i.w.), gemcitabine alone (100 mg/kg, IP, b.i.w.), or Compound 1+gemcitabine. Mice receiving Compound 1 also received gemcitabine vehicle (saline, IP, b.i.w.) at a volume (μL) of 50× body weight (g). Mice receiving gemcitabine also received Compound 1 vehicle (0.5% hydroxypropylmethylcellulose with 0.1% Tween80 (w/v), PO, b.i.w.) at a volume (μL) of 5.7× body weight (g). All drug and vehicle combinations were administered simultaneously.
Tumor ultrasonography and volume quantification were carried out as described in Sastra S A, Olive K P, Quantification of murine pancreatic tumors by high-resolution ultrasound, Methods Mol Biol 2013; 980:249-66. […]
To prepare samples for immunohistochemistry, tissues were first fixed overnight in 10% phosphate-buffered formalin and then stored in 70% ethanol for long-term storage. […] Next, antigen retrieval was carried out in an experimentally determined, antibody-specific antigen retrieval buffer (usually 10 mM citrate, pH 6.0 or 10 mM Tris, pH 10.0). […]

Aspc1 cells = assay: Active caspase 3 apoptosis flow cytometry in Aspc1 cells; type: cell-based, human; conditions: 24, 48, 72 hours, relative to vehicle (FIGS. 3a, 3b)
Procedure: For active Caspase-3 (ActCasp3) staining, the Caspase 3 (active) FITC Staining Kit (Abcam, ab65613) was used according to manufacturer's instructions. Cells were seeded in 12-well plates such that ˜16 hours later they would be approximately 50-60% confluent. […] Samples were analyzed on a BD LSR II™ and analyzed by FlowJo software. (FIG. 3a and FIG. 3b)

BMI-1 = assay: Western blot of BMI-1 levels in PDA cell lines; type: cell-based, human; conditions: Aspc1, MiaPaCa-2, Panc1 cells; 0.1 μM or 1.0 μM, 24 hours (FIG. 10a)
Procedure: Western blotting was carried out on lysates isolated from treated cells. Cells were lysed using RIPA buffer (50 mM Tris, pH 7.4, 150 mM NaCl, 1% Nonidet P-40, 0.1% SDS, 0.5% deoxycholate) supplemented with cOmplete™ EDTA-free Protease Inhibitor Cocktail (Sigma, 11836170001) and Halt™ Phosphatase Inhibitor Cocktail (ThermoFisher, 78420). Lysates were quantified using the Pierce BCA Protein Assay Kit (ThermoFisher, 23227), diluted in SDS sample buffer, resolved by SDS-PAGE (15-30 μg/sample), and transferred onto PVDF membranes. Membranes were blocked with 5% w/v nonfat dry milk in TBS-T (0.1% Tween20) and primary antibodies were incubated overnight at 4° C., diluted in 5% BSA in TBS-T at the indicated concentrations. HRP-conjugated secondary antibodies were incubated in blocking buffer for 1 hour at room temperature before detection using Super Digital-ECL™ substrate solution (Kindle Biosciences, R1002). (FIG. 5b, FIG. 10a and FIG. 11b)
Western Blot Antibodies: • Bmi1: Cell Signaling, #5856, 1:1000 • Vinculin: Cell Signaling, #4650S, 1:1000 • Beta-tubulin: Cell Signaling, #2146S, 1:1000 P-Glycoprotein Substrate Activity Experiment

Structure (SMILES): Cc1nc2ccc(F)cc2n1-c1nc(N)c(F)c(Nc2ccc(C(F)(F)F)cc2)n1 [Compound 1, 5-fluoro-2-(6-fluoro-2-methyl-1H-benzo[d]imidazol-1-yl)-N4-[4-(trifluoromethyl)phenyl]pyrimidine-4,6-diamine]
- tumor volumes by high resolution 3D ultrasound (PDA tumors in KPC mice): time-dependent decrease in KPC mouse model PDA tumor volume
- total apoptotic Aspc1 cells (active caspase 3+) (Aspc1 cells): time-dependent increase in cell biomarkers that indicate a corresponding increase in cell apoptosis
- BMI-1 levels relative to vinculin (BMI-1): consistent reduction in BMI-1 protein expression in various cell types
